From patent US10550089B2, “Inhibitors of protease-activated receptor-2” (Heptares Therapeutics Limited, priority 2016, dated 2020)

What was measured:
PAR2 [1] = target: T1, PAR2 (Homo sapiens (Human), UniProt P55085); experiment: Trypsin activated FLPR Ca2+ mobilization assay for PAR2 antagonist activity; format: cell-based
Protocol: Trypin Activated FLPR Assay:
Protocol for Testing Compounds for PAR2 Antagonist Activity Using a Ca2+ Mobilization Assay
Calcium mobilization was measured using 1321N1 cells stably expressing human PAR2. Cells were seeded in 384-well plates at 4,000 cells per well in 20 μl DMEM with Glutamax supplemented with 10% FBS and incubated for 18-24 h at 37° C., 5% CO2 and 95% humidity. […] The addition was done using a FLIPR^TETRA (384-well head, Molecular Devices) and the response was read simultaneously to detect any agonist activity.

PAR2 [2] = target: T1, PAR2; experiment: IP-One HTRF assay for PAR2 antagonist activity (IP1 production); format: cell-based
Protocol: Protocol for Testing Compounds for PAR2 Antagonist Activity Using an IP-One HTRF Assay
Inositol monophosphate (IP1) production were measured in 1321N1 cells stably expressing human PAR2 using an IP-One HTRF assay kit (Cisbio). […] After 60 min at 37° C. cells were lysed and IP1 concentrations were detected according to the manufacturers protocol (Cisbio). Data were normalized to IP1 concentrations using a IP1 standard curve according to the manufacturers protocol (Cisbio).

[3] = 1321N1 cells stably expressing human PAR2, agonist Trypsin, Vorapaxar present to block PAR1, read-out: hPAR2 FLPR (Trypsin) IC50
[4] = 1321N1 cells stably expressing human PAR2, agonist SLIGRL-NH2, read-out: hPAR2 IPpone IC50
[5] = hPAR2 IPpone IC50 (μM), 1321N1 cells stably expressing human PAR2, agonist SLIGRL-NH2
[6] = hPAR2 FLPR (Trypsin) IC50 (μM), 1321N1 cells stably expressing human PAR2, agonist Trypsin, Vorapaxar present to block PAR1

T1 sequence (P55085 26-397): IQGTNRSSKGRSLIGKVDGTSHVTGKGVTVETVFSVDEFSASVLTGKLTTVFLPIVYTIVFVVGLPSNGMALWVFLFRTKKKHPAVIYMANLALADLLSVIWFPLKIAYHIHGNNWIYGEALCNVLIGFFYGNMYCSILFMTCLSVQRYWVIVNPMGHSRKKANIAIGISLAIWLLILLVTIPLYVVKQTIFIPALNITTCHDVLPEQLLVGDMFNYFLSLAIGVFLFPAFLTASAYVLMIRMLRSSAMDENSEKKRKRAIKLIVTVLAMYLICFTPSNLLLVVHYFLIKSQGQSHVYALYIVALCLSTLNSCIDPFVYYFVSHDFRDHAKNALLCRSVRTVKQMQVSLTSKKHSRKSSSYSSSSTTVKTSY

Structure (SMILES)	IC50 (PAR2 [1]; [3]) [µM]	IC50 (PAR2 [2]; [4]) [µM]	further results
Cn1ccc2c(F)ccc(C(O)c3ncc[nH]3)c21 (stereo not drawn) [Example 54, (4-Fluoro-1-methyl-1H-indol-7-yl)(1H-imidazol-2-yl)methanol]	6.15	–	–
OC(c1ncc[nH]1)c1cccc(Cl)c1-n1cccn1 (stereo not drawn) [Example 21, (3-Chloro-2-(1H-pyrazol-1-yl)phenyl) (1H-imidazol-2-yl)methanol]	40.3	6.4	–
OC(c1ncc[nH]1)c1ccc(F)c2occ(C3CC3)c12 (stereo not drawn) [Example 43, (3-Cyclopropyl-7-fluorobenzofuran-4-yl)(1H-imidazol-2-yl)methanol]	4.58	0.86	–
OC(c1ncc[nH]1)c1ccc(F)cc1N1CCCC1 (stereo not drawn) [Example 14, (4-Fluoro-2-(pyrrolidin-1-yl)phenyl)(1H-imidazol-2-yl)methanol]	–	–	IC50 (PAR2 [2]; hPAR2 IPpone IC50 (μM)): 1.52 µM; IC50 (PAR2 [1]; hPAR2 FLPR (Trypsin) IC50 (μM)): 16.9 µM
C/C=C/c1cc(F)ccc1C(O)c1ncc[nH]1 (stereo not drawn) [Example 8, (E)-(4-Fluoro-2-(prop-1-enyl)phenyl)(1H-imidazol-2-yl)methanol]	5.1	5.64	–
OC(c1ncc[nH]1)c1ccc(F)cc1N1CC2CC2C1 (stereo not drawn) [Example 30, (2-(3-Azabicyclo[3.1.0]hexan-3-yl)-4-fluorophenyl)(1H-imidazol-2-yl)methanol]	–	–	IC50 (PAR2 [2]; [5]): 4.67 µM; IC50 (PAR2 [1]; [6]): 11.6 µM
CC(C)c1ccc2c(F)ccc(C(O)c3ncc[nH]3)n12 (stereo not drawn) [Example 38, (8-Fluoro-3-isopropylindolizin-5-yl)(1H-imidazol-2-yl)methanol]	–	–	IC50 (PAR2 [2]; [5]): 1.91 µM; IC50 (PAR2 [1]; [6]): 13.9 µM
OC(c1ncc[nH]1)c1ccc(F)cc1N1CC=CC1 (single isomer, unassigned) [Example 18, (2-(2,5-dihydro-1H-pyrrol-1-yl)-4-fluorophenyl)(1H-imidazol-2-yl)methanol]	4.28	0.9	–
OC(c1ncc[nH]1)c1ccc(F)cc1C1CCCC1 (stereo not drawn) [Example 6, (2-Cyclopentyl-4-fluorophenyl)(1H-imidazol-2-yl)methanol]	9.57	5	–
OC(c1ncc[nH]1)c1ccc(F)cc1-c1cscn1 (stereo not drawn) [Example 33, (4-Fluoro-2-(thiazol-4-yl)phenyl)(1H-imidazol-2-yl)methanol]	–	–	IC50 (PAR2 [2]; hPAR2 IPpone IC50 (μM)): 3.6 µM; IC50 (PAR2 [1]; hPAR2 FLPR (Trypsin) IC50 (μM)): 16.8 µM
OC(c1ncc[nH]1)c1ccc(F)cc1N1CC=CC1 (single isomer, unassigned) [Example 19, (2-(2,5-dihydro-1H-pyrrol-1-yl)-4-fluorophenyl) (1H-imidazol-2-yl)methanol]	> 100	93	–
CCCc1cc(F)ccc1[C@@H](O)c1ncc[nH]1 [Example 2, (R)-(4-fluoro-2-propylphenyl)(1H-imidazol-2-yl)methanol]	> 41	> 100	–
OC(c1ncc[nH]1)c1ccc(F)cc1C1=CCCC1 (stereo not drawn) [Example 5, (2-Cyclopentenyl-4-fluorophenyl)(1H-imidazol-2-yl)methanol]	13.7	5.18	–
CCCc1c(C(O)c2ncc[nH]2)ccc(F)c1F (single isomer, unassigned) [Example 12, (3,4-Difluoro-2-propylphenyl)(1H-imidazol-2-yl)methanol]	4.9	4	–
OC(c1ncc[nH]1)c1ccc(F)cc1N1CC[C@H](F)C1 (stereo partly drawn) [Example 26, (4-Fluoro-2-((S)-3-fluoropyrrolidin-1-yl)phenyl)(1H-imidazol-2-yl)methanol]	–	3.87	–
OC(c1ncc[nH]1)c1ccc(F)cc1C1CCC1 (stereo not drawn) [Example 7, (2-Cyclobutyl-4-fluorophenyl)(1H-imidazol-2-yl)methanol]	7.85	11.5	–
CC1(F)CN(c2cc(F)ccc2C(O)c2ncc[nH]2)C1 (stereo not drawn) [Example 24, (4-Fluoro-2-(3-fluoro-3-methylazetidin-1-yl)phenyl)(1H-imidazol-2-yl)methanol]	16.3	6.73	–
OC(c1ncc[nH]1)c1ccc(F)c(F)c1-n1cccn1 (stereo not drawn) [Example 22, (3,4-Difluoro-2-(1H-pyrazol-1-yl)phenyl)(1H-imidazol-2-yl)methanol]	20	4.6	–
CCn1ccc2c(F)ccc(C(O)c3ncc[nH]3)c21 (stereo not drawn) [Example 57, (1-Ethyl-4-fluoro-1H-indol-7-yl)(1H-imidazol-2-yl)methanol]	9.03	1.65	–
OC(c1ncc[nH]1)c1ccc(F)c2occ(C3CC3)c12 (single isomer, unassigned) [Example 44, (3-Cyclopropyl-7-fluorobenzofuran-4-yl)(1H-imidazol-2-yl)methanol]	> 41	6.54	–
OC(c1ncc[nH]1)c1ccc(F)cc1N1CCC(F)(F)C1 (stereo not drawn) [Example 28, (2-(3,3-Difluoropyrrolidin-1-yl)-4-fluorophenyl)(1H-imidazol-2-yl)methanol]	30.3	4.91	–

Structure (SMILES)	IC50 (PAR2 [1]; [3]) [µM]	IC50 (PAR2 [2]; [4]) [µM]	further results
Cc1ccc2c(F)ccc(C(O)c3ncc[nH]3)n12 (stereo not drawn) [Example 37, (8-Fluoro-3-methylindolizin-5-yl)(1H-imidazol-2-yl)methanol]	3.27	0.97	–
Cn1ncc2c(F)ccc(C(O)c3ncc[nH]3)c21 (stereo not drawn) [Example 62, (4-Fluoro-1-methyl-1H-indazol-7-yl)(1H-imidazol-2-yl)methanol]	–	3.38	–
OC(c1ncc[nH]1)c1ccc(F)cc1N1CCC1 (stereo not drawn) [Example 20, (2-(Azetidin-1-yl)-4-fluorophenyl)(1H-imidazol-2-yl)methanol]	18.6	4.5	–
CCCc1c(C(O)c2ncc[nH]2)ccc(F)c1F (single isomer, unassigned) [Example 11, (3,4-Difluoro-2-propylphenyl)(1H-imidazol-2-yl)methanol]	> 77	> 41	–
OC(c1ncc[nH]1)c1ccc(F)cc1N1CC=CC1 (stereo not drawn) [Example 17, (2-(2,5-dihydro-1H-pyrrol-1-yl)-4-fluorophenyl)(1H-imidazol-2-yl)methanol]	8.75	1.05	–
CC1CN(c2cc(F)ccc2C(O)c2ncc[nH]2)C1 (stereo not drawn) [Example 25, (4-Fluoro-2-(3-methylazetidin-1-yl)phenyl)(1H-imidazol-2-yl)methanol]	22	6.88	–
OC(c1ncc[nH]1)c1ccc(F)cc1-c1cocn1 (stereo not drawn) [Example 32, (4-Fluoro-2-(oxazol-4-yl)phenyl)(1H-imidazol-2-yl)methanol]	30.6	14.3	–
CCCc1c(Cl)cccc1C(O)c1ncc[nH]1 (stereo not drawn) [Example 13, (3-Chloro-2-propylphenyl)(1H-imidazol-2-yl)methanol]	–	–	IC50 (PAR2 [2]; [5]): 5.45 µM; IC50 (PAR2 [1]; [6]): 12.4 µM
CCCc1c(C(O)c2ncc[nH]2)ccc(F)c1F (stereo not drawn) [Example 10, (3,4-Difluoro-2-propylphenyl)(1H-imidazol-2-yl)methanol]	5.9	1.66	–
C[C@@H]1CCN(c2cc(F)ccc2C(O)c2ncc[nH]2)C1 (stereo partly drawn) [Example 29, (4-Fluoro-2-((R)-3-methylpyrrolidin-1-yl)phenyl)(1H-imidazol-2-yl)methanol]	> 41.6	13.1	–
CCCc1cc(F)ccc1C(O)c1ncc[nH]1 (stereo not drawn) [Example 1, (4-Fluoro-2-propylphenyl)(1H-imidazol-2-yl)methanol]	–	–	IC50 (PAR2 [2]; hPAR2 IPpone IC50 (μM)): 2.93 µM
OC(c1ncc[nH]1)c1ccc(F)cc1N1CCCC1 (single isomer, unassigned) [Example 15, (4-Fluoro-2-(pyrrolidin-1-yl)phenyl)(1H-imidazol-2-yl)methanol]	–	–	IC50 (PAR2 [2]; hPAR2 IPpone IC50 (μM)): > 100 µM; IC50 (PAR2 [1]; hPAR2 FLPR (Trypsin) IC50 (μM)): > 41 µM
OC(c1ncc[nH]1)c1ccccc1C1=CCCC1 (stereo not drawn) [Example 4, (2-Cyclopentenylphenyl)(1H-imidazol-2-yl)methanol]	16.6	6.27	–
CCc1coc2c(F)ccc([C@@H](O)c3ncc[nH]3)c12 (single isomer, unassigned) [Example 41]	–	–	IC50 (PAR2 [2]; [5]): 26 µM; IC50 (PAR2 [1]; [6]): 2.19 µM
OC(c1ncc[nH]1)c1ccc(F)cc1-n1cccn1 (stereo not drawn) [Example 23, (4-Fluoro-2-(1H-pyrazol-1-yl)phenyl)(1H-imidazol-2-yl)methanol]	25.4	7.21	–
CCc1coc2c(F)ccc(C(O)c3ncn[nH]3)c12 (stereo not drawn) [Example 63, (3-Ethyl-7-fluorobenzofuran-4-yl)(1H-1,2,4-triazol-5-yl)methanol]	15.6	–	–
Cn1ccc2c(F)ccc(C(O)c3ncc[nH]3)c21 (single isomer, unassigned) [Example 56, (4-Fluoro-1-methyl-1H-indol-7-yl)(1H-imidazol-2-yl)methanol]	> 41.6	> 100	–
OC(c1ncc[nH]1)c1ccc(F)cc1N1CC[C@@H](F)C1 (stereo partly drawn) [Example 27, (4-Fluoro-2-((R)-3-fluoropyrrolidin-1-yl)phenyl)(1H-imidazol-2-yl)methanol]	> 41.6	6.96	–
OC(c1ncc[nH]1)c1ccc(F)c2ccc(C3CC3)n12 (stereo not drawn) [Example 39, (3-Cyclopropyl-8-fluoroindolizin-5-yl)(1H-imidazol-2-yl)methanol]	–	–	IC50 (PAR2 [2]; [5]): 13.2 µM
OC(c1ncc[nH]1)c1cccc2cc3n(c12)CCC3 (stereo not drawn) [Example 58, (2,3-Dihydro-1H-pyrrolo[1,2-a]indol-5-yl)(1H-imidazol-2-yl)methanol]	> 41.6	–	–
